The values below come from US6677366B2, “Methods, compositions and articles for reducing or preventing the effects of inflammation” (QLT Inc., priority 1997, dated 2004).

In data set [1] the test system is filtration bleb. As to conditions: previous rabbit studies; cited from earlier work.
The next data set deals with bleb scarring. The following applies: in vivo; cited from earlier work.
Data set [2] concerns patients. The following applies: topical ointment postoperatively; cited from earlier work.
In data set [3] the test system is patients. The following applies: human, in vivo; cited from earlier work.
For a further data set, the system named is ocular fibroblasts. As to conditions: cited from earlier work.
In the next data set the test system is control eye. Put plainly: Toxicity: control eye examination and adverse events (Example 2). In kind it is in vivo, rabbit. The following applies: for Fibrin clot within the first four days: resolved without sequelae by end of first week. The text has this:
(§1) The control eye received the same photosensitizer and irradiation subconjunctivally as the surgical eye, but without a fistula being created. The control eye was used to test toxicity and as a basis for detecting a decrease in IOP for the surgical eye. The time at which the BPD-MA was applied was varied, as follows:
(§2) Postoperatively at day 0 and every two days following surgery, the rabbits were examined with slit lamp biomicroscopy to evaluate filtration bleb extent, filtration bleb height, conjuctival erythema over the bleb, anterior chamber cell flare, and anterior chamber depth. Applanation tonometry to measure IOP following topical anesthesia. A subjective ocular discomfort assessment was also performed by determining animal comfort and eating habits, in accordance with the grading scale shown below:
In FIGS. 3, 4 and 5, a statistical difference was observed between groups (P ,0.001). The bleb height and extent, as well as other slit lamp characteristics, were analyzed by a chi-square test. Adverse events also were analyzed by a chi-square test. A Cox Proportional Hazard Model was used to evaluate for parameters that most accurately predicted filtration bleb survival on each examination day.

Data set [4] deals with filtration bleb. The data set can be described thus: Pilot light dosing of topical BPD-MA PDT during filtration surgery (Example 1). It is filed as in vivo, rabbit. As for the experimental part:
Filtration surgery was performed on one eye in six normal rabbits. A Weck cell sponge was saturated with a 2 mg/mL aqueous solution of the photosensitizer benzoporphyrin derivative monoacid ring A (BPD-MA, also known as “BPD-verteporfin”). During surgery, the saturated Weck cell was used to apply BPD-MA topically for two minutes to the sclera and conjunctiva in the surgical field. After washing out the excess drug with BSS, both the sclera and conjunctiva were exposed to red light having a wavelength of about 690 nm, which was delivered by a light emitting diode (“LED”) placed at a distance of about 1 cm from the tissue to be irradiated. Each of the six rabbits used in this experiment received a different dose of light, specifically, 0, 3, 6, 12, 18 and 24 J/cm^2 over a 30-second to 4-minute time period. The treated rabbits were followed for 11-12 days after surgery by determining filtration bleb height, bleb vascularity (indicative of inflammation), and reduction in intraocular pressure (“IOP”). The data obtained on day 5 and day 11 are shown below in Tables 1A and 1B respectively.

Data set [5] deals with filtration bleb. In kind it is in vivo. The procedure: At day 7, one rabbit from each group and, following bleb failure, two rabbits from each group, were sacrificed to undergo histologic and transmission electron microscopic (“TEM”) analysis. Histologic evaluation was performed after first fixing the cadaver eyes with 10% buffered neutral formalin. The eyes were processed, sectioned, and then stained with hematoxylin and eosin, as well as Masson's Trichrome. The specimens were examined in a masked fashion by an independent observer.
Transmission electron microscopy was performed by fixing tissue samples in 2.5% glutaraldehyde buffered with 0.1 M cacodylate containing 7% sucrose. Tissues were post fixed for one hour with 2% osmium tetroxide and dehydrated through graded alcohol concentrations to 100% ethanol. The 2×5 mm tissue blocks were then infiltrated with catalyzed epoxy resin. Thick sections (0.5 μm) were cut and stained with toluidine blue and examined by light microscopy to determine appropriate areas. Thin section (80 nm) were then cut, picked up on copper grids, and stained with uranyl acetate and lead citrate for TEM evaluation. A Hitachi H7000 transmission electron microscope was used to examine these sections.

The subject of data set [6] is filtration bleb. Put plainly: Times of PDT administration, full thickness filtration surgery (Example 2). In kind it is in vivo, rabbit. The procedure: The photosensitizer used in the example was prepared as follows: A liposomally formulated benzoporphyrin derivative, monoacid ring A, BPD-MA or BPD-verteporfin was supplied by QLT PhotoTherapeutics, Inc. as a lyophilized powder and was reconstituted with sterile distilled water shortly before use. The BPD was reconstituted to 1.98 mg/mL was used to saturate the 3 mm cut end of a Weck cell. In control groups, the Weck cell was saturated with basic salt solution (“BSS”).
On day 0, full thickness filtration surgery was performed on one randomly selected eye in 48 rabbits, 12 in each of four groups. In each rabbit, the untreated other eye served as a control. The filtration procedure was performed in the following manner: Each animal was anesthetized with a mixture of ketamine and xylazine. A wire speculum was used to separate the eyelids. […] Following creation of the fornix-based flap, the Weck cell saturated with BPD-MA (or BSS placebo) was placed on the sclera posterior to the limbus where the fistula was to be created. The conjunctiva was draped over the Weck Cell. The Weck cell thus rested between the conjunctiva and sclera, also coming into contact with the episclera and Tenon's capsule, for two minutes. The Weck cell was then removed and the area was irrigated with BSS. Instruments and gloves were also rinsed before entering the eye, and a 1.0 mm trephine was used to enter the anterior chamber.
The conjunctival flap was then secured to the limbus using two 7-0 vicryl sutures. […] The light source was used at a maximum output ([…]), which provided a total dosage of approximately 7.2 J.
A drop of tobramycin was then placed into each eye following surgery. Tobramycin and prednisolone acetate were instilled in both eyes four times a day for one week following surgery.
as §1
BPD treatment at 48 hours post surgery consisted of the application of the 3 mm cut end of a Weck cell saturated with a 2 mg/mL aqueous solution of BPD-MA (or placebo) laid on the conjunctiva over the filtration bleb for two minutes, followed by washing out the excess photosensitizer and exposure to red LED light having a wavelength of 688 nm for one minute.
as §2
Bleb survival was assessed by the extent and height of the bleb and by IOP as compared with the control eye. The degree of the inflammatory response was determined by erythema over the filtration bleb and was scored on a scale of 0-3. Rabbits were terminated when bleb failure was noted, i.e., when the intraocular pressure in the surgical eye equaled that of the control eye and the filtration bleb was flat.

The mark [7] stands for this setting: postoperative day 5, irradiation time 30 seconds.
The mark [8] stands for this setting: postoperative day 5, irradiation time 1 minute.
Setting [9] is: postoperative day 5, irradiation time 2 minutes.
Setting [10] is: postoperative day 5, irradiation time 3 minutes.
[11] abbreviates: postoperative day 11, irradiation time 30 seconds.
The mark [12] stands for this setting: postoperative day 11, irradiation time 1 minute.
Setting [13] is: postoperative day 11, irradiation time 2 minutes.
Where [14] appears, read: postoperative day 11, irradiation time 3 minutes.
[15] abbreviates: day 7, eyes that received BPD at surgery.

Turning to `O=c1[nH]cc(F)c(=O)[nH]1` [5-Fluorouracil], in the data set on filtration bleb [1], the “Filtration Bleb Survival (mean days ± SD)” value is given as 19.5 ± 5.5 days and the “Filtration Bleb Survival [range]” value was 14 to 25 days.

For `Nc1ncnc2c1ncn2[C@@H]1O[C@H](CO)[C@@H](O)[C@@H]1O` [Ara-A], in the data set on filtration bleb [1], the “Filtration Bleb Survival (mean days ± SD)” value is given as 15.2 ± 1.8 days.

`N#CCCN` [BAPN, Beta-aminopropionitrite]: the “Potency in animal studies” value with bleb scarring is “only limited potency”. Moreover, in the data set with patients [2], the “Patients with IOP kept below 22 mm Hg” value was 74%.

Turning to `CC(C)(S)[C@@H](N)C(=O)O` [D-penicillamine], the “Potency in animal studies” value in the data set with bleb scarring was “only limited potency”.

On to `CO[C@@]12[C@H](COC(N)=O)C3=C(C(=O)C(C)=C(N)C3=O)N1C[C@@H]1N[C@@H]12` [Mitomycin-C], for which, in the data set with patients [3], the “Ocular hypotony (IOP less than 5 or 6 mm Hg), fraction of patients treated” value was “⅓” and the “Probability of late-onset bleb leaks” value is “around 25%”. Besides, in the data set on filtration bleb [1], the “Filtration Bleb Survival (mean days ± SD)” value was 34.8 ± 28.8 days and the “Filtration Bleb Survival [range]” value was 6 to 23.2 days.

With `O=c1[nH]c(=O)n([C@H]2C[C@H](O)[C@@H](CO)O2)cc1F` [floxuridine], the “Potency relative to fluorouracil in long-term inhibition of ocular fibroblasts” value in the data set with ocular fibroblasts is recorded as “about 100 times”.

For the molecule Bleomycin, in the data set with filtration bleb [1], the “Filtration Bleb Survival (mean days ± SD)” value is given as 25.5 ± 14.5 days and the “Filtration Bleb Survival [range]” value is 21 to 50 days.

With “benzoporphyrin derivative monoacid ring A [BPD-MA]”, the “Fibrin clot within the first four days” value with control eye (Group 2) and in the data set with control eye (Group 3) was “three” each time. In addition, the Adverse events result in the data set with control eye (all groups) is “few and not related specifically to the use of the photosensitizer”. Moreover, the “Anterior segment ocular exam of control eye, placebo versus BPD-treated” value in the data set on control eye (control eye, P>0.05) was “no differences between the placebo and BPD-treated eyes”. Also, the “Survival of the filtration bleb versus light dose” value in the data set on filtration bleb [4] (light doses 0-24 J/cm^2) is on record as “longest in eyes treated with light at a medium range of doses”. Besides, the “Bleb Height” value is “Small” in the data set with filtration bleb [4] (setting [7]); “Maximum” with filtration bleb [4] (setting [8]); “Maximum” in the data set on filtration bleb [4] (setting [9]); “Small” in the data set on filtration bleb [4] (setting [10]); “Minimal” with filtration bleb [4] (setting [11]); “Maximum” with filtration bleb [4] (setting [12]). In addition, the “Bleb Height” value with filtration bleb [4] (setting [13]) is reported as “Maximum”; in the data set with filtration bleb [4] (setting [14]), “Low”. Moreover, the “Bleb Vascularity” value in the data set with filtration bleb [4] (setting [7]) was “Vascular”; in the data set with filtration bleb [4] (setting [8]) it was “Avascular”; with filtration bleb [4] (setting [9]), “Avascular'”; in the data set with filtration bleb [4] (setting [10]), “Vascular”; in the data set with filtration bleb [4] (postoperative day 5, irradiation time 4 minutes) it was “Vascular”; with filtration bleb [4] (setting [11]), “Vascular”. The “Bleb Vascularity” value in the data set with filtration bleb [4] (setting [12]) is “Avascular”; in the data set on filtration bleb [4] (setting [13]), “Avascular'”; in the data set on filtration bleb [4] (setting [14]), “Vascular”. The “IOP Decrease” value with filtration bleb [4] (postoperative day 5, irradiation time 30 seconds, 2 mg/mL topical 2 min, 690 nm light) is on record as “Minimal”; in the data set with filtration bleb [4] (postoperative day 5, irradiation time 1 minute, 2 mg/mL topical 2 min, 690 nm light) it was greater than 20 mm Hg; in the data set on filtration bleb [4] (postoperative day 5, irradiation time 2 minutes, 2 mg/mL topical 2 min, 690 nm light), 20 mm Hg; in the data set with filtration bleb [4] (postoperative day 5, irradiation time 3 minutes, 2 mg/mL topical 2 min, 690 nm light) it was 2.5 mm Hg; with filtration bleb [4] (postoperative day 5, irradiation time 4 minutes, 2 mg/mL topical 2 min, 690 nm light) it was 0-4 mm Hg; in the data set with filtration bleb [4] (setting [11]), 2.3 mm Hg. Further, the figures for the “IOP Decrease” value in the data set on filtration bleb [4] (setting [12]), with filtration bleb [4] (setting [13]) and with filtration bleb [4] (setting [14]) were greater than 20 mm Hg, greater than 20 mm Hg and 3-4 mm Hg, respectively. Also, in the data set with filtration bleb [4] (postoperative day 11, irradiation time 4 minutes), the “Bleb outcome (rabbit sacrificed)” value is “bleb failure”. Besides, in the data set with filtration bleb [5] (day 7, BPD only at day 2 (Group 3)), the “Light microscopy of filtering bleb” value is reported as “increased lymph channels in addition to the fibroblasts, but no vascular proliferation”. Further, the “Light microscopy of filtering bleb: fibroblasts, vessels, lymph channels” value in the data set on filtration bleb [5] (setting [15]) is listed as “no fibroblasts, vascular increase or lymphocytic channel increase”. Besides, the “Light microscopy of filtering bleb: lymphocytic response” value in the data set on filtration bleb [5] (setting [15]) is recorded as “mild lymphocytic response”. In addition, the “Histology of eye fistulas” value in the data set with filtration bleb [5] (end of the study (three weeks postoperatively)) is “only a few lymphocytes and no proliferation of blood vessels at the fistula”. The Epithelium finding entry in the data set with filtration bleb [5] (rabbit, in vivo) is “thinned epithelium”. For the same molecule, in the data set on filtration bleb [5] (surgical or control eye), the “Histologic and transmission electron microscopic analysis for toxicity” value was “no evidence of toxicity or inflammation apart from the filtration site”. The “Inflammatory response (erythema over the bleb)” value with filtration bleb [6] (BPD and light at relatively low doses, especially during surgery) is reported as “prevented the development of inflammation”. The “Bleb survival in comparison with placebo control or treatment only at 48 hours” value in the data set on filtration bleb [6] (BPD and light during surgery (Groups 2 and 4)) was “prolonged bleb survival”. Also, the “IOP (ANOVA)” value in the data set with filtration bleb [6] (BPD given intraoperatively, P=0.057) was “trend toward lower IOP”. Also, the “Mean (±SD) filtration bleb survival time” value in the data set with filtration bleb [6] (Group 2: BPD treatment during surgery, placebo 48 hours post surgery) is 23.8 ± 12 days; in the data set with filtration bleb [6] (Group 3: placebo during surgery, BPD treatment 48 hours post surgery), 10.1 ± 9 days; in the data set on filtration bleb [6] (Group 4: BPD treatment during surgery and 48 hours post surgery), 23.2 ± 8 days. For the same molecule, the “Erythema over the bleb” value in the data set with filtration bleb [6] (Group 3 (BPD only at 48 hours), FIG. 5) is “higher inflammatory response”. In the data set on filtration bleb [6] (Group 4), the “Effect of second treatment with BPD and light at 48 hours” value is “did not appear to have any additional effect”. In addition, the “Extent and height of the bleb” value in the data set with filtration bleb [6] (up to 12 days postoperatively, FIG. 3, FIG. 4) is recorded as “indicated the effectiveness of low-dose PDT treatment during surgery”. For the same molecule, the “Filtration bleb survival compared to previous rabbit studies” value in the data set on filtration bleb [6] (versus Table 2 literature values) was “prolonged the filtration bleb survival compared to normal controls, Ara-A and 5-fluorouracil”. Moreover, the “Life of the filtration bleb compared with mitomycin C studies” value in the data set with filtration bleb [6] (versus literature) is listed as “longer that in some rabbits who received mitomycin C”.
